Here are results for 41 molecules from ChEMBL document CHEMBL1139511, “AFMoC enhances predictivity of 3D QSAR: a case study with DOXP-reductoisomerase” (J Med Chem, 2005).

pIC50: −log10 of the molar value.

In the test the target is T1, 1-deoxy-D-xylulose 5-phosphate reductoisomerase (Escherichia coli K-12, UniProt P45568).
T1 sequence (P45568 whole entry): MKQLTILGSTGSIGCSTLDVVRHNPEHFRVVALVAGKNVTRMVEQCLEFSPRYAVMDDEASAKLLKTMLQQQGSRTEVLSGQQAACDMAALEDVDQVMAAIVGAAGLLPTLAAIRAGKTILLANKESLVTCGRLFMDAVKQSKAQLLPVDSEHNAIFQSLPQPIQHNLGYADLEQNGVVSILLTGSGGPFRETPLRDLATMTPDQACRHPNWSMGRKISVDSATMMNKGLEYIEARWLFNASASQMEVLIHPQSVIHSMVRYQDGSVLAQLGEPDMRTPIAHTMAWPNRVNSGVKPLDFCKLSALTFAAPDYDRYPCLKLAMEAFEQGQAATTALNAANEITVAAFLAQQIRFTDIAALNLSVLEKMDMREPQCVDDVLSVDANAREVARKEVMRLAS
In words: Inhibitory concentration against DOXP reductoisomerase.
The molecule `CC(=O)N(O)CC(C)CP(=O)(O)O` (stereo unspecified) showed a pIC50 of 6.19.

`CC(C)CC(=O)N(O)CCCP(=O)(O)O` had a pIC50 of 4.62.

For `CCCC(CCN(O)C=O)P(=O)(O)O` (stereo unspecified), the pIC50 was 5.09.

`O=C(c1cccc2ccccc12)N(O)CCCP(=O)(O)O` showed a negative-log IC50 (pIC50) of 6.64.

In the case of `NCCCCCC(=O)N(O)CCCP(=O)(O)O`, the pIC50 was 4.39.

Molecule `O=C(CCCc1c[nH]c2ccccc12)NCC(=O)N(O)CCCP(=O)(O)O` showed a pIC50 of 4.77.

The molecule `O=C(C(Cl)Cl)N(O)CCCP(=O)(O)O` showed a pIC50 of 6.75.

Turning to `O=C(CNCP(=O)(O)O)NO`, the pIC50 is 4.79.

`CC(=O)N(O)CCCP(=O)(O)O` [FR-900098] showed a pIC50 of 7.55.

On to `CCCCCCCC(=O)N(O)CCCP(=O)(O)O`, for which the pIC50 is 5.77.

For the molecule `CCC(CCN(O)C(C)=O)P(=O)(O)O` (stereo unspecified), the pIC50 is 6.15.

`O=C(NCC(=O)N(O)CCCP(=O)(O)O)c1ccc(OC(F)(F)F)cc1` gave a pIC50 of 5.29.

For the molecule `NCCC(=O)N(O)CCCP(=O)(O)O`, the pIC50 was 4.80.

Regarding `O=C(N(O)CCCP(=O)(O)O)C(F)(F)F`, the pIC50 is 4.85.

Take `CC(O)CC(=O)N(O)CCCP(=O)(O)O` (stereo unspecified): the pIC50 was 4.30.

Consider `CCC(C(=O)NCC(=O)N(O)CCCP(=O)(O)O)c1ccccc1` (stereo unspecified), for which the pIC50 was 4.70.

In turn, `O=C(c1ccccc1)N(O)CCCP(=O)(O)O` gave a negative logarithm of the IC50 (pIC50) of 7.00.

In turn, `CN(CC(=O)NO)CP(=O)(O)O` had a pIC50 of 4.50.

In turn, `O=C(c1ccccc1O)N(O)C1CCC(P(=O)(O)O)C1` (stereo unspecified) had a pIC50 of 4.30.

For the molecule `O=C(CCc1ccccc1)N(O)CCCP(=O)(O)O`, the pIC50 was 4.30.

`O=C(c1ccc(-c2ccccc2)cc1)N(O)CCCP(=O)(O)O` gave a pIC50 of 5.62.

`CC(=O)N(O)C/C=C/P(=O)(O)O` showed a pIC50 of 7.19.

Take `CS(=O)(=O)N(O)CCCP(=O)(O)O`: the pIC50 is 4.42.

In turn, `CC(=O)N(O)CCC(C)P(=O)(O)O` (stereo unspecified) had a pIC50 of 7.27.

`O=C(C1CC1)N(O)CCCP(=O)(O)O` gave a pIC50 of 4.44.

`CC(C)C(CCN(O)C=O)P(=O)(O)O` (stereo unspecified) had a pIC50 of 5.18.

For `O=C(c1ccccc1O)N(O)CCCP(=O)(O)O`, the pIC50 is 5.74.

The molecule `COC(=O)c1ccccc1C(=O)N(O)CCCP(=O)(O)O` gave a pIC50 of 4.00.

`O=C(NCC(=O)N(O)CCCP(=O)(O)O)C1CC1` gave a pIC50 of 5.15.

With `COc1ccc(CC(=O)NCC(=O)N(O)CCCP(=O)(O)O)cc1OC`, the pIC50 is 4.85.

With `CCC(CCN(O)C=O)P(=O)(O)O` (stereo unspecified), the pIC50 was 5.75.

In the case of `CCCC(CCN(O)C(C)=O)P(=O)(O)O` (stereo unspecified), the pIC50 is 5.18.

The molecule `CC(=O)N(O)C1CCC(P(=O)(O)O)C1` (stereo unspecified) had a pIC50 of 5.63.

`CCOC(=O)C(=O)N(O)C1CCC(P(=O)(O)O)C1` (stereo unspecified) gave a pIC50 of 4.80.

In turn, `O=C(CCCOc1ccccc1)NCC(=O)N(O)CCCP(=O)(O)O` gave a pIC50 of 6.00.

For `CC(C)(C)C(=O)N(O)CCCP(=O)(O)O`, the pIC50 was 4.96.

In turn, `O=C(CN(Cc1ccccc1)CP(=O)(O)O)NO` showed a pIC50 of 5.74.

With `NC(CCP(=O)(O)O)C(=O)NO` (stereo unspecified), the pIC50 is 5.01.

For the molecule `O=C(CCCP(=O)(O)O)NO`, the pIC50 was 6.59.

`NCCCC(=O)N(O)CCCP(=O)(O)O` gave a pIC50 of 4.59.

Take `O=CN(O)CC(Cc1ccccc1)CP(=O)(O)O` (stereo unspecified): the pIC50 was 5.19.
